Source: PubChem BioAssay AID588780 (Sanford-Burnham Center for Chemical Genomics, 2011)
Activity calls are given as the source filed them.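 How the source made its calls: active means compounds whose fitted half-maximal concentration in the cell-protection dose series is at or below a set limit; inactive means the rest.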

Each molecule was assayed on H9c2 cardiomyocytes, 2-deoxyglucose stress, ATP luminescence, 2 h (assay: protection of cardiomyocytes from 2-deoxyglucose injury, dose response, cell-based, 2-deoxyglucose stress, uHTS hits (AID 588780)).
`CC(=O)NCCNc1nc2c(-c3ccccc3)nnn2c2ccccc12` was tested, and the IC50 was > 79 µM (inactive). `COc1cc(NC(=O)c2cc([N+](=O)[O-])ccc2NC(=O)CN2CCN(c3ccccn3)CC2)cc(OC)c1` was tested, and the IC50 was > 79 µM (inactive). `COc1ccccc1-c1cc2nc(-c3ccccc3)cc(N3CCN(C(=O)c4ccco4)CC3)n2n1` was tested, and the IC50 was > 79 µM (inactive). `Cc1cc(NC(=O)COC(=O)COc2ccc3c4c(c(=O)oc3c2)CCC4)no1` was tested, and the IC50 was > 79 µM (inactive). `Cc1cc(C(=O)N/N=C/c2c(CO)cnc(C)c2O)c2ccccc2n1` was tested, and the IC50 was > 79 µM (inactive). For `CCOC(=O)c1c(C)[nH]c(C)c1C(=O)COc1ncnc2cc([N+](=O)[O-])ccc12`, the IC50 was 14.6 µM. For `CSc1nc2sc3c(c2c(=O)[nH]1)CCC3`, the IC50 was > 79 µM (inactive). With `CC(Oc1cccc(Br)c1)C(=O)NNC(=O)c1ccccn1` (stereo not drawn) the IC50 was > 79 µM (inactive). For `CC(C)OCCCNC(=O)CCC(=O)NNc1nc2ccccc2c2nc(-c3ccccc3)nn12`, the IC50 was > 79 µM (inactive). For `Cc1cc(C)cc(C(=O)Nc2ccc(NC(=O)c3cccs3)cc2)c1`, the IC50 was > 79 µM (inactive). With `COc1cc(NC(=O)c2cccc3c(-c4cnn(C)c4)coc23)cc(OC)c1OC` the IC50 was > 79 µM (inactive). For `CCOC(=O)C1CCN(c2cc3c(cc2NC(=O)c2ccc(OC)c(OC)c2)n(C)c(=O)n3C)CC1`, the IC50 was > 79 µM (inactive). With `CCCN(CC(=O)Nc1ccccc1C)C(=O)Cc1n[nH]c(=O)c2ccccc12` the IC50 was > 79 µM (inactive). For `CCCNC(=O)c1c(N)n(-c2cccc(OC)c2)c2nc3ccccc3nc12`, the IC50 was > 79 µM (inactive). Work on `CCOC(=O)c1ccc(NC(=O)c2nc[nH]c2C(=O)NCCCCCNC(=O)OC(C)(C)C)cc1` yielded an IC50 of 5.78 µM. `Cc1cccc(NC(=O)c2oc3ccc(S(=O)(=O)N4CCOCC4)cc3c2C)c1C` was tested, and the IC50 was > 79 µM (inactive). For `COc1ccc(CCn2c(=N)c(C(=O)NCC3CCCO3)cc3c(=O)n4cccc(C)c4nc32)cc1OC` (stereo not drawn), the IC50 was 58 µM (inactive). For `CCCC(c1nnnn1C(C)(C)CC)N(CCCO)Cc1cc2cc(C)cc(C)c2[nH]c1=O` (stereo not drawn), the IC50 was > 79 µM (inactive). With `O=C(CNC(=O)c1cccc(F)c1)N/N=C/c1cc(Br)ccc1OC(=O)/C=C/c1ccco1` the IC50 was > 79 µM (inactive). With `COC(=O)c1ccc(N)c(N=CC2=C(O)CC(C)(C)CC2=O)c1` the IC50 was 10.8 µM. In the case of `NS(=O)(=O)c1ccc(CCNC(=O)c2ccc(C#CC3(O)CCCCC3)cc2)cc1`, the IC50 is reported as > 79 µM (inactive). In the case of `COc1ccc(NC(=O)CCCc2nc3ccccc3c(=O)[nH]2)cc1Cl`, the IC50 is reported as > 79 µM (inactive). `S=C(Nc1ccc(N2CCOCC2)cc1)Nc1ccc2nc(-c3ccco3)c(-c3ccco3)nc2c1` was tested, and the IC50 was > 79 µM (inactive). With `CC(OC(=O)Cn1[nH]c(=O)c2ccccc2c1=O)C(=O)NC1(C#N)CCCCC1` (stereo not drawn) the IC50 was > 79 µM (inactive). `Cn1c(=O)[nH]c(=O)c2c1nc(NCCc1ccccc1)n2CC(O)COc1ccccc1` (stereo not drawn) was tested, and the IC50 was > 79 µM (inactive). For `CC(=O)OCc1nc2sc(C)c(C)c2c(=O)[nH]1`, the IC50 was > 79 µM (inactive). With `COc1ccc(-n2cc(-c3ccccc3)c3c(N4CCOCC4)ncnc32)cc1` the IC50 was > 79 µM (inactive). In the case of `O=C(CCCn1c(SCC(=O)c2ccc(O)c(O)c2)nc2ccccc2c1=O)NCC1CCCO1` (stereo not drawn), the IC50 is reported as 38.7 µM (inactive). `CCOC(=O)C1CCN(c2cc3c(cc2NC(=O)c2ccc(F)cc2)n(C)c(=O)n3C)CC1` showed an IC50 of 21.2 µM. With `Cc1ccc(N2CC(C(=O)NCc3n[nH]c(=O)c4ccccc34)CC2=O)cc1C` (stereo not drawn) the IC50 was > 79 µM (inactive). In the case of `O=C(Nc1cccc(NC(=O)c2ccc([N+](=O)[O-])o2)c1)c1ccco1`, the IC50 is reported as > 79 µM (inactive). In the case of `CCCCn1c(=NC(=O)c2cccnc2)c(C#N)cc2c(=O)n3cccc(C)c3nc21`, the IC50 is reported as 33.6 µM (inactive). For `COc1cccc(N2CC(C(=O)NCc3n[nH]c(=O)c4ccccc34)CC2=O)c1` (stereo not drawn), the IC50 was > 79 µM (inactive). `COC(=O)c1c(C)[nH]c(C(=O)COc2ccc3ccc(=O)oc3c2)c1C` was tested, and the IC50 was > 79 µM (inactive). In the case of `CCOC(=O)C1CCN(c2cc3c(cc2NC(=O)c2ccccc2)n(C)c(=O)n3C)CC1`, the IC50 is reported as > 79 µM (inactive). `O=[N+]([O-])c1ccc(Nc2nc(N/N=C/c3cccc(F)c3)nc(N3CCCC3)n2)cc1` was tested, and the IC50 was > 79 µM (inactive). With `CN(C)N(Cc1ccccc1)C(=O)C(O)(c1ccccc1)c1ccccc1` the IC50 was > 79 µM (inactive). In the case of `CCOc1ccc2[nH]c(=O)c(CN(CCO)C(c3nnnn3C3CCCCC3)C(C)C)cc2c1` (stereo not drawn), the IC50 is reported as > 79 µM (inactive). `CCCc1cc(=O)oc2c(CNc3ccc(OCC)cc3)c(O)ccc12` gave an IC50 of 17.4 µM. `CC(=O)Oc1ccc(C(=O)OCC(=O)c2c(N)n(C)c(=O)n(C)c2=O)cc1OC(C)=O` was tested, and the IC50 was 31.8 µM (inactive). For `CCc1c(C)nc(Nc2nc(C)c3ccc(OC)cc3n2)[nH]c1=O`, the IC50 was > 79 µM (inactive). For `COc1ccc(CNc2nn3c(-c4cccc(C(=O)N(C)C)c4)cnc3s2)cc1`, the IC50 was > 79 µM (inactive). For `COC(=O)c1cc(OC)c(OC)cc1NC(=O)c1ccc(OC)c(OC)c1`, the IC50 was > 79 µM (inactive). `COc1cc(NC(=O)c2ccc(-c3cn[nH]c3)c3ccoc23)cc(OC)c1OC` was tested, and the IC50 was 10.4 µM. In the case of `CCCCn1c(N)c(Br)c(=O)[nH]c1=O`, the IC50 is reported as > 79 µM (inactive). In the case of `CC(C)(C)OC(=O)CNC(=O)c1[nH]cnc1C(=O)NC(c1ccccc1)c1ccccc1`, the IC50 is reported as 19.2 µM. For `COc1ccc(-c2nn3c(-c4ccco4)nnc3s2)cc1OC`, the IC50 was 33.8 µM (inactive). With `O=C(N/N=C/c1cn(-c2ccccc2)nc1-c1cccs1)c1ccccc1F` the IC50 was > 79 µM (inactive). For `COc1cc(/C=C/C(=O)CC(=O)/C=C/c2ccc(O)c(OC)c2)ccc1O`, the IC50 was > 79 µM (inactive). With `CCOC(=O)c1nc(Nc2ccc(C(C)=O)cc2)c2ccccc2n1` the IC50 was 18.9 µM. `Cc1c(O)ccc2c(-c3ccccc3)cc(=O)oc12` showed an IC50 of 24.5 µM. With `Cc1noc(C)c1Cn1nc(C(=O)O)c2ccccc2c1=O` the IC50 was > 79 µM (inactive). In the case of `O=C(Nc1ccccc1C(=O)Nc1ccccc1C(=O)NCc1ccco1)c1ccco1`, the IC50 is reported as 8.02 µM. `NC(=O)c1c(NC(=O)Cn2nc(C(=O)O)c3ccccc3c2=O)sc2c1CCC2` was tested, and the IC50 was > 79 µM (inactive). For `C[C@H](CO)N1C[C@H](C)[C@@H](CN(C)S(=O)(=O)c2ccc(F)cc2)Oc2ccc(NC(=O)Nc3ccc4c(c3)OCO4)cc2C1=O`, the IC50 was 36 µM (inactive). With `CCn1nc(C(=O)Nc2nc(-c3ccccn3)cs2)c2ccccc2c1=O` the IC50 was > 79 µM (inactive). `COc1ccc(CCNC(=O)C(=O)NCC2CCCN2S(=O)(=O)c2cc(C)ccc2C)cc1` (stereo not drawn) was tested, and the IC50 was > 79 µM (inactive). `O=C(COC(=O)c1ccc([N+](=O)[O-])o1)Nc1ccc(N2CCOCC2)cc1` was tested, and the IC50 was > 79 µM (inactive). `NC(=O)c1ccsc1NC(=O)COC(=O)Cc1n[nH]c(=O)c2ccccc12` was tested, and the IC50 was > 79 µM (inactive). For `Cc1c(C(=O)NCC2COc3ccccc3O2)oc2ccc(S(=O)(=O)N3CCOCC3)cc12` (stereo not drawn), the IC50 was > 79 µM (inactive). `COc1cc(/C=N/NC(=O)c2cccnc2)ccc1OS(=O)(=O)c1ccc(F)cc1` showed an IC50 of 14.1 µM. For `O=C(N/N=C/c1ccccn1)c1cc(-c2cccc3ccccc23)n[nH]1`, the IC50 was > 79 µM (inactive). In the case of `O=C(CSc1nc2ccccc2c(=O)[nH]1)N1CCOCC1`, the IC50 is reported as > 79 µM (inactive). For `COc1cccc(NC(=O)COc2cccc3c2CCNC3=O)c1`, the IC50 was 54.5 µM (inactive). For `COc1ccc(-c2cc(C(F)F)n3ncc(C(=O)Nc4ccc(C(=O)N5CCOCC5)cc4)c3n2)cc1`, the IC50 was > 79 µM (inactive). Molecule `COc1ccccc1NC(=O)COc1ccc(C(=O)OCC(=O)NC(C)(C)C)cc1OC` has an IC50 of 17.6 µM. `CCOc1ccc(CCNC(=O)c2cc3c(C)nccc3[nH]c2=O)cc1OCC` gave an IC50 of 12.4 µM. `CCn1c(SCC(=O)N2CCN(c3ccccc3)CC2)nc2c(c1=O)SC(C)C2` (stereo not drawn) was tested, and the IC50 was > 79 µM (inactive). With `O=C(Nc1nc(-c2cc(F)ccc2F)cs1)C1=NN(c2ccccc2)C(=O)CC1` the IC50 was > 79 µM (inactive). For `Cn1c(C(=O)NCc2cccs2)cc2c(=O)n(C)c3ccccc3c21`, the IC50 was > 79 µM (inactive). In the case of `COc1ccccc1NC(=O)CSc1ccc2nnc(-c3ccc(C)cc3)n2n1`, the IC50 is reported as > 79 µM (inactive). With `O=C(CCc1nc2ccccc2c(=O)[nH]1)OCC(=O)N1CCc2ccccc21` the IC50 was > 79 µM (inactive). `Cc1ccc(S(=O)(=O)N2CCOCC2)cc1C(=O)Nc1nc(-c2ccccn2)cs1` showed an IC50 of 9.58 µM. For `O=CNc1cc(-c2ccc(C(=O)NC3CC3)cc2)cn2c(-c3ccccc3)cnc12`, the IC50 was 12.1 µM. `O=C1Nc2cnc(Cl)nc2Nc2ccccc21` was tested, and the IC50 was > 79 µM (inactive). For `COc1ccc(Nc2nnc(SCc3cc(=O)n4ccsc4n3)s2)cc1`, the IC50 was 14.1 µM. With `NC(=O)c1ccccc1N=Cc1ccccn1` the IC50 was > 79 µM (inactive). Work on `COc1ccc(N(CC(=O)NCCSc2ccccc2)S(=O)(=O)c2ccccc2)c(OC)c1` yielded an IC50 of 12.3 µM. In the case of `COC(=O)c1[nH]c2ccccc2c1NC(=O)CNC1CCCCC1`, the IC50 is reported as > 79 µM (inactive). In the case of `COc1ccccc1CN(C(=O)CNC(=O)c1ccco1)C(C(=O)NCC1CCCO1)c1ccccc1` (stereo not drawn), the IC50 is reported as 11.6 µM. For `Brc1cc2c(cc1/C=N/Nc1nc(N3CCCC3)nc(N3CCOCC3)n1)OCO2`, the IC50 was > 79 µM (inactive). With `COc1cc(OC)cc(-c2cc3nc(C)c(CCC(=O)Nc4nc(C)cs4)c(C)n3n2)c1` the IC50 was > 79 µM (inactive). `Cc1ccc2nc(SCc3nc4ccccc4c(=O)[nH]3)[nH]c2c1` was tested, and the IC50 was > 79 µM (inactive). For `Nc1nonc1-n1nnc(C(=O)N/N=C/c2ccccn2)c1CNc1ccccc1`, the IC50 was 37.7 µM (inactive). `COc1cc(NC(=O)c2ccco2)c(OC)cc1NC(=O)c1cc(OC)c(OC)c(OC)c1` was tested, and the IC50 was > 79 µM (inactive). `COc1ccc(-c2cc(C(=O)NC(C)c3ccccn3)c3ccccc3n2)cc1OC` (stereo not drawn) showed an IC50 of 13 µM. In the case of `Cc1ccc(Cn2c(CCNc3nc(-c4ccc(Cl)c([N+](=O)[O-])c4)cs3)nc3cc(C(=O)NCCCO)ccc32)cc1`, the IC50 is reported as > 79 µM (inactive). Work on `Cc1c(-c2ccccc2)oc2c(C(=O)OCC(=O)Nc3ccc(C(N)=O)cc3)cccc2c1=O` yielded an IC50 of 9.94 µM. `CCOc1cc(/C=C/c2ccc3cccc([N+](=O)[O-])c3n2)ccc1OCC(=O)N(C)C` was tested, and the IC50 was 12.5 µM. In the case of `O=C(CCn1nc(-c2ccccc2)c2ccccc2c1=O)N1CCN(c2ccccc2)CC1`, the IC50 is reported as > 79 µM (inactive). `Oc1ccc2oc3c(c2c1C=NCc1ccncc1)CCCC3` was tested, and the IC50 was > 79 µM (inactive). For `O=C(Cn1[nH]c(=O)c2ccccc2c1=O)NC1CCN(Cc2ccccc2)CC1`, the IC50 was > 79 µM (inactive). In the case of `COc1ccccc1OP(=O)(Nc1cccnc1)Oc1ccccc1OC`, the IC50 is reported as > 79 µM (inactive).
